Laboratory results as given in the kinase profiling compilation of Christmann-Franck et al. (2016).

Columns and labels:
Conditions in all cases: compound 1.0 µM
[1] = target: ABL1 (human) (UniProt P00519)
[2] = target: AKT1 (human) (UniProt P31749)
[3] = target: AURKA (human) (UniProt O14965)
[4] = target: CDK2 (human) (UniProt P24941)
[5] = target: CHEK1 (human) (UniProt O14757)
[6] = target: CSNK2A1 (human) (UniProt P68400)
[7] = target: FGFR1 (human) (UniProt P11362)
[8] = target: GSK3B (human) (UniProt P49841)
[9] = target: IKBKB (human) (UniProt O14920)
[10] = target: IKBKE (human) (UniProt Q14164)
[11] = target: INSR (human) (UniProt P06213)
[12] = target: KDR (human) (UniProt P35968)
[13] = target: LCK (human) (UniProt P06239)
[14] = target: MAPK1 (human) (UniProt P28482)
[15] = target: MAPK14 (human) (UniProt Q16539)
[16] = target: MAPKAPK2 (human) (UniProt P49137)
[17] = target: MET (human) (UniProt P08581)
[18] = target: MST4 (human) (UniProt Q9P289)
[19] = target: NTRK1 (human) (UniProt P04629)
[20] = target: PDPK1 (human) (UniProt O15530)
[21] = target: PRKCB1 (human) (UniProt P05771)
[22] = target: ROCK1 (human) (UniProt Q13464)
[23] = target: SRC (human) (UniProt P12931)
[24] = target: TAOK3 (human) (UniProt Q9H2K8)
[25] = target: EGFR (human) (UniProt P00533)
[26] = target: PAK4 (human) (UniProt O96013)
[27] = target: PRKACA (human) (UniProt P17612)

Chain of MET (human) (P08581 whole entry, looked up): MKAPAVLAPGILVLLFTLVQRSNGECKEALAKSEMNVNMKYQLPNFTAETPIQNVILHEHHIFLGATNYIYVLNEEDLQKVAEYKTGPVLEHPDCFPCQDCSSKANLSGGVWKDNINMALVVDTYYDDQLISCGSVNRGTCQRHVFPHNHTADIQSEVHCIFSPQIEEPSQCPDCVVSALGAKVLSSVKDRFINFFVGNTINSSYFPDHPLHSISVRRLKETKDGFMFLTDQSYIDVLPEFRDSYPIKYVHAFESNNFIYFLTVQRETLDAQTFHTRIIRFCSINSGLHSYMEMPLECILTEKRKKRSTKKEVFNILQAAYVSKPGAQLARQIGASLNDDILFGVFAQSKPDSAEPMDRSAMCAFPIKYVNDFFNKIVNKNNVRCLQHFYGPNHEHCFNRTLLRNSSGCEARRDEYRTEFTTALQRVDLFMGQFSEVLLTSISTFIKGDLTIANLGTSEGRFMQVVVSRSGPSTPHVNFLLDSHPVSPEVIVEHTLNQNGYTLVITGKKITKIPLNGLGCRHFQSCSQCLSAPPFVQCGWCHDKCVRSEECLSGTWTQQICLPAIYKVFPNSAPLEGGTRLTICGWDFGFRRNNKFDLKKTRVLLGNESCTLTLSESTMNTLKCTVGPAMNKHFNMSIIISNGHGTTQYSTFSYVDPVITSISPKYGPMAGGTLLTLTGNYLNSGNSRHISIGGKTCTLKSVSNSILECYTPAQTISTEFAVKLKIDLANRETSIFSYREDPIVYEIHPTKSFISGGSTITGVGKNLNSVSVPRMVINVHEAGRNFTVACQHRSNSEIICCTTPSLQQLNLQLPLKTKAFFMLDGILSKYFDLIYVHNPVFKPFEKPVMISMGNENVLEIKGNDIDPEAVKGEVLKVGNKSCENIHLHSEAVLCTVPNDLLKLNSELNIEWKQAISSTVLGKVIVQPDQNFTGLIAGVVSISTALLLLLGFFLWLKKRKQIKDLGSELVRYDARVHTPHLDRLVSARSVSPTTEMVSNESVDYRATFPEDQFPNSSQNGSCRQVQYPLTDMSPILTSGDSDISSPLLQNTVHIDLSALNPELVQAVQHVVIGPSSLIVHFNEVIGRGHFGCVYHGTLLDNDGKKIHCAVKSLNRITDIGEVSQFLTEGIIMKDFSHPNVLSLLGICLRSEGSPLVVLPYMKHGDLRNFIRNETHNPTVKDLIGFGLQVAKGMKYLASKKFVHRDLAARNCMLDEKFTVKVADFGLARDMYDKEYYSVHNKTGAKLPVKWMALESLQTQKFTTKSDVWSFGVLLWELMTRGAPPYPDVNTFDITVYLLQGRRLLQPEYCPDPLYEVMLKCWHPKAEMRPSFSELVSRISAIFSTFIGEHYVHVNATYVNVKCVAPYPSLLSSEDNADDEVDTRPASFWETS
Chain of AURKA (human) (O14965 whole entry, looked up): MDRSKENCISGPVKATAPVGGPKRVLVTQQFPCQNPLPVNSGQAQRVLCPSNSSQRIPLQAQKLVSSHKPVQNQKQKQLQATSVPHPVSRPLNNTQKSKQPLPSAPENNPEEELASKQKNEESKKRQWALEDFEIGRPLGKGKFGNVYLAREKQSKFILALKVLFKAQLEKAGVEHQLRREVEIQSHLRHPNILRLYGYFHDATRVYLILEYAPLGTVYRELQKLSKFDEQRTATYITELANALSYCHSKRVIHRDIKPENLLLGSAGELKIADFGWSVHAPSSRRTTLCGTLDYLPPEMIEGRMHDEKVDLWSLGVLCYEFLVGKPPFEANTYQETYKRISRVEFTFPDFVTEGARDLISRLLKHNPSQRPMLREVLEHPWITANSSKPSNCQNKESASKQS
Chain of ABL1 (human) (P00519 whole entry, looked up): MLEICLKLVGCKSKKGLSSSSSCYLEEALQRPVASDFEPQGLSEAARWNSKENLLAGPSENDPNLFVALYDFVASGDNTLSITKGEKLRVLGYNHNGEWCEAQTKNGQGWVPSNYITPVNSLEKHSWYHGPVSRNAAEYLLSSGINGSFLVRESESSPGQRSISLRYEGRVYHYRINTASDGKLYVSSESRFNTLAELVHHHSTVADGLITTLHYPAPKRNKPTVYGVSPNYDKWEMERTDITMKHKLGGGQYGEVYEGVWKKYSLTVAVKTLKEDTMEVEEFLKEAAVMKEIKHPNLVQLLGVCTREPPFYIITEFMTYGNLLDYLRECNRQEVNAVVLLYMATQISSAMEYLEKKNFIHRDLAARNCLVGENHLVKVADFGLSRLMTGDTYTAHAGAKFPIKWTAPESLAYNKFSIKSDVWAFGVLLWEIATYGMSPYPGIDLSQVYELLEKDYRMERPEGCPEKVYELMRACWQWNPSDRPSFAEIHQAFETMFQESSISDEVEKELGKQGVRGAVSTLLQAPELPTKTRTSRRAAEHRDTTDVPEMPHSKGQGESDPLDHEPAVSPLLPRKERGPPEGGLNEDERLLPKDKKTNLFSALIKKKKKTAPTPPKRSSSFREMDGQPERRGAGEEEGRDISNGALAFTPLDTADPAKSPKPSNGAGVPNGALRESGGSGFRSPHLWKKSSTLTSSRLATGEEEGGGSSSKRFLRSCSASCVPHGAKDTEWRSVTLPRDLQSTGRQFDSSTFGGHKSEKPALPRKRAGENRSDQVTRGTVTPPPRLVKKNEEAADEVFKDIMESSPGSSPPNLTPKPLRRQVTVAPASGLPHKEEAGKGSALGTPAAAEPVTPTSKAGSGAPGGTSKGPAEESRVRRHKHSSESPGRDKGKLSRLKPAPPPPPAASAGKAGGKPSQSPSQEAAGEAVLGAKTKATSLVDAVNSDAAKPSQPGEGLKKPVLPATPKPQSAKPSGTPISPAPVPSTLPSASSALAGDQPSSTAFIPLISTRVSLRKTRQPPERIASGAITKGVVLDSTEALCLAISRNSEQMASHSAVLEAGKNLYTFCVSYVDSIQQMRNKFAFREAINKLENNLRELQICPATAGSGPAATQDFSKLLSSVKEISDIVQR
Chain of GSK3B (human) (P49841 whole entry, looked up): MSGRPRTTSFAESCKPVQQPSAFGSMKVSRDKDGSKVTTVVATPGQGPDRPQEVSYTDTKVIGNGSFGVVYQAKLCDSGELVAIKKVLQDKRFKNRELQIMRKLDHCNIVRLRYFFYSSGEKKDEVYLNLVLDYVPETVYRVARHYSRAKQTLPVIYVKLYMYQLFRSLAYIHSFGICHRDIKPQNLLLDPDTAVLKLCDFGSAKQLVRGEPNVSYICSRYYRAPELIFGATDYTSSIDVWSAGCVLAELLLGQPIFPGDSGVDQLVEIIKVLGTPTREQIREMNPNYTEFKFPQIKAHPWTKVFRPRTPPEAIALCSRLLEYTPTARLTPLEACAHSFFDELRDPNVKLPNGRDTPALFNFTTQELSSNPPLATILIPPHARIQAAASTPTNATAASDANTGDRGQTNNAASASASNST
Chain of MAPKAPK2 (human) (P49137 whole entry, looked up): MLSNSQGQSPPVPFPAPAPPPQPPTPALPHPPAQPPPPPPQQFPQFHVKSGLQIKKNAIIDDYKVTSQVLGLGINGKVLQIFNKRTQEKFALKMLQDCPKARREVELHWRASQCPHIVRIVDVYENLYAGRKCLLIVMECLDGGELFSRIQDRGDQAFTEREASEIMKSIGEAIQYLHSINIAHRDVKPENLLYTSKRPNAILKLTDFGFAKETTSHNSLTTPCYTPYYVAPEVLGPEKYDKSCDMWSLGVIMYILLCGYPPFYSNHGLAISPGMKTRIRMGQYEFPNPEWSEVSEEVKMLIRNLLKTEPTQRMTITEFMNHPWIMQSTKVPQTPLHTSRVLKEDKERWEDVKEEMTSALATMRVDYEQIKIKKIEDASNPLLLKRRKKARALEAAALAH
Chain of IKBKB (human) (O14920 whole entry, looked up): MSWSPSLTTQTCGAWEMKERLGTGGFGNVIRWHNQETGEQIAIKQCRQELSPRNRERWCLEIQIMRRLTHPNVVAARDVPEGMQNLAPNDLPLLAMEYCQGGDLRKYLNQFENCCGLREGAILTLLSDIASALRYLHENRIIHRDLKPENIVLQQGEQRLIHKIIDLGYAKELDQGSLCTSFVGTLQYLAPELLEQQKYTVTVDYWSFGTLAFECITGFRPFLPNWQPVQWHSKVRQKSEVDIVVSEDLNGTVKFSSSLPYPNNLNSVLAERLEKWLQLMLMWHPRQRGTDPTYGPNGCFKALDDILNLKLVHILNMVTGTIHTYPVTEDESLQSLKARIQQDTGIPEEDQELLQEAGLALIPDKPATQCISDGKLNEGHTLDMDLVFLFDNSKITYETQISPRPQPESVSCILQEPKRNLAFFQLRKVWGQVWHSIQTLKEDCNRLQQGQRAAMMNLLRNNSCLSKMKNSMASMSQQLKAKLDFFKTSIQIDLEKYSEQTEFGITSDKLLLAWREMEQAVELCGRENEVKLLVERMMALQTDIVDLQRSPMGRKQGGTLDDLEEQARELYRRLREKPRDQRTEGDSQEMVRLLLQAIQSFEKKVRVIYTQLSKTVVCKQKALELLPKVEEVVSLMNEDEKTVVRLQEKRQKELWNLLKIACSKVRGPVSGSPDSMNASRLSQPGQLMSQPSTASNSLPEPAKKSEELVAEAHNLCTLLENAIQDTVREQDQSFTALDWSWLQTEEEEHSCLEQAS
Chain of SRC (human) (P12931 whole entry, looked up): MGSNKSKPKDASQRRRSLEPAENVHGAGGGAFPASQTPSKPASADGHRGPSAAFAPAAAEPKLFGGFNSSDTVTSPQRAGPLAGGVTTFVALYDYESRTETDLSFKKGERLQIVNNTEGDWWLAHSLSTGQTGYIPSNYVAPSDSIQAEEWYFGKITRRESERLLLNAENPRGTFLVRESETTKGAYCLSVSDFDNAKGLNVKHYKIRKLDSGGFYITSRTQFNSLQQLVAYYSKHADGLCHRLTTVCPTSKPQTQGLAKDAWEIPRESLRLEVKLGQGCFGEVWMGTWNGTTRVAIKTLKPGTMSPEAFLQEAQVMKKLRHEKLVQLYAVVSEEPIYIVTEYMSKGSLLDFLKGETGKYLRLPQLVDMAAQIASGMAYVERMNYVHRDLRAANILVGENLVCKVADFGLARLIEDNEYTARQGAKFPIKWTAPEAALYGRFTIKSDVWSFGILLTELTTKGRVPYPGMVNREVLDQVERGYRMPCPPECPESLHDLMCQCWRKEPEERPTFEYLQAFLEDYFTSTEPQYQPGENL

Structure (SMILES)	inhibition [1]	inhibition [2]	inhibition [3]	inhibition [4]	inhibition [5]	inhibition [6]	inhibition [7]	inhibition [8]	inhibition [9]	inhibition [10]	inhibition [12]	inhibition [14]	inhibition [16]	inhibition [17]	inhibition [18]	inhibition [20]	inhibition [21]	inhibition [22]	inhibition [23]	inhibition [24]	other results
O=S(=O)(c1cccc2cnccc12)N1CCCNCC1	0%	16%	4.4%	0%	0%	0%	0%	0%	0%	0%	4%	1.5%	0%	0%	3.5%	0%	5.6%	86.1%	0.9%	0%	inhibition [11]: 1.9%; inhibition [13]: 0%; inhibition [15]: 0.9%; inhibition [19]: 0.9%
CC[C@@H](CO)Nc1nc(NCc2ccccc2)c2ncn(C(C)C)c2n1	8.86%	0%	0%	–	0%	1.93%	0%	0%	0%	0.63%	1.35%	0%	0%	0%	0%	0%	8.46%	0%	4.9%	3.7%	inhibition [25]: 5.07%; inhibition [11]: 1.28%; inhibition [13]: 0%; inhibition [15]: 5.04%; inhibition [19]: 3.46%; inhibition [26]: 2.92%; inhibition [27]: 5.58%
Cc1ccc(-c2nn(C(C)(C)C)c3ncnc(N)c23)cc1	82.9%	10.6%	8.8%	2.5%	0%	1%	50.1%	2.8%	4.4%	3.9%	70.6%	6.6%	0.2%	11.3%	14.8%	0%	17.5%	2.8%	93.4%	17.4%	inhibition [13]: 94.5%; inhibition [15]: 33.7%; inhibition [19]: 49.8%; inhibition [26]: 5.3%; inhibition [27]: 29.2%
O=C1NCCc2[nH]c(-c3ccnc(-c4ccccc4F)c3)cc21	0%	3.5%	0%	7%	1.8%	20.5%	0%	3.4%	0%	0%	11.9%	11.7%	73.7%	30.4%	10%	0%	0%	5.4%	9.9%	33.8%	inhibition [13]: 0%; inhibition [15]: 6.7%; inhibition [26]: 4.1%; inhibition [27]: 4.3%
C#Cc1cccc(Nc2ncnc3cc(OCCOC)c(OCCOC)cc23)c1	80.6%	11.1%	39.1%	0%	0%	0%	0%	13.6%	6.5%	6.5%	63.6%	2.3%	0%	19.4%	18.7%	0%	27.9%	0%	36.7%	0%	inhibition [11]: 3.4%; inhibition [15]: 0%; inhibition [19]: 18.5%; inhibition [26]: 5.7%; inhibition [27]: 0.1%
CS(=O)c1ccc(-c2nc(-c3ccc(F)cc3)c(-c3ccncc3)[nH]2)cc1 (stereo not given)	3.15%	0.56%	0%	0%	0%	0%	0%	52.6%	0%	0%	13.5%	11.7%	0%	0%	0%	0%	23.6%	4.88%	16.6%	15.7%	inhibition [11]: 0.995%; inhibition [13]: 7.1%; inhibition [19]: 4.44%; inhibition [26]: 6.86%; inhibition [27]: 18.4%
CS(=O)(=O)CCNCc1ccc(-c2ccc3ncnc(Nc4ccc(OCc5cccc(F)c5)c(Cl)c4)c3c2)o1	0%	0%	0%	0%	0%	0%	0%	0%	0%	0%	0%	0%	0%	0%	0%	0%	0%	0%	0%	0%	inhibition [11]: 0%; inhibition [13]: 0%; inhibition [15]: 0%; inhibition [19]: 0%; inhibition [26]: 0%; inhibition [27]: 0%
